The subject of data set [1] is heart failure rat model (MI Rat Model). Description: In vivo cardiac contractility in heart failure (MI) rat model. On the set-up: species or system Lewis rat. The following applies: heart failure rats in vivo, acute settings. The procedure:
Evidence for Improvement in Cardiac Contractility In Vivo in Heart Failure Rat Model
Based on the ex vivo findings in isolated heart assay, APJ agonists were dosed in vivo to investigate the translation of cardiac contractility in in vivo settings. Male Lewis rats (Charles River, USA) at 2-3 months of age were used for the study. Heart failure was induced by permanent ligation of the left descending coronary artery which results in injury to the heart with an ejection fraction of <35%. APJ agonists were administered dose dependently acutely for a period of 30 min. Administration of example compounds lead to an increase in cardiac contractility as measured by dP/dtmax (derivative of left ventricular pressure) (Table 41).

The target of the next data set is human APJ receptor (Homo sapiens (Human), UniProt P35414). Description: biochemical. Type of data set: biochemical. The following applies: [35S]GTPγS binding, CHO membranes expressing human APJ receptor; read-out: Activity hAPJ SPA EC50 IP. Put shortly: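 GTPγS binding on membranes from CHO cells stably expressing FLAG-tagged human APJ, with optimized GDP, MgCl2 and NaCl; incubated 90 min at RT before imaging read-out.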
human APJ receptor, sequence (P35414 whole entry): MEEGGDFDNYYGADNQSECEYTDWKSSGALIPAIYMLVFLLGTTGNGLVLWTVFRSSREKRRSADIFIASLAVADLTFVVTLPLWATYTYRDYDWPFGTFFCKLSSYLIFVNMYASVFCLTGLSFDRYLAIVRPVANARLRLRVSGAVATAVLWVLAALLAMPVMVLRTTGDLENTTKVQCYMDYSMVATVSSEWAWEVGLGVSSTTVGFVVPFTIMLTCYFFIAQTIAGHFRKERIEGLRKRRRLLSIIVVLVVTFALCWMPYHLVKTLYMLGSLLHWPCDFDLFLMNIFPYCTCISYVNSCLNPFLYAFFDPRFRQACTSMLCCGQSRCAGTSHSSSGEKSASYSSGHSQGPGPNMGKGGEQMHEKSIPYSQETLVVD

The conditions of data set [2]: cited from earlier work.

On to `C[C@H](CS)C(=O)N1CCC[C@H]1C(=O)O` [Captopril], for which the “improvement in contractility or ejection fraction” value in data set [1] is recorded as “does not show a marked improvement in contractility or ejection fraction”.
Regarding “(R)-N-(4-(2,6-dimethoxyphenyl)-5-(pyrimidin-4-yl)-4H-1,2,4-triazol-3-yl)-1-(5-fluoropyrimidin-2-yl)propane-2-sulfonamide and (R)-N-(4-(2,6-dimethoxyphenyl)-5-(pyrimidin-4-yl)-4H-1,2,4-triazol-3-yl)-1-(5-fluoropyrimidin-2-yl)propane-2-sulfonamide [Example 31.0]”, the EC50 at human APJ receptor worked out at 190 nM.
Still for that read-out and setting: with “(R)-N-(4-(2,6-dimethoxyphenyl)-5-(pyrimidin-5-yl)-4H-1,2,4-triazol-3-yl)-1-(5-fluoropyrimidin-2-yl)propane-2-sulfonamide and (S)-N-(4-(2,6-dimethoxyphenyl)-5-(pyrimidin-5-yl)-4H-1,2,4-triazol-3-yl)-1-(5-fluoropyrimidin-2-yl)propane-2-sulfonamide [Example 48.0]” the figure was 150 nM.
In the case of “Apelin-13 (QRPRLSHKGPMPF; Apelin-13; UniProt Q9ULZ1 65-77, looked up)”, in data set [2], the plasma half-life is reported as less than 5 min.

Source of the values: patent publication US11046680B1, “Heteroaryl-substituted triazoles as APJ receptor agonists” (priority 2016, dated 2021).
